Results taken from patent US6686390B2, “Compounds having antiinflamatory activity: process for their preparation and pharmaceutical compositions containing them” (Dr. Reddy's Laboratories Limited, priority 2000, dated 2004).

SMILES	melting point
COc1cc(C2=C(c3ccccc3)C(=O)OC2)ccc1SC [Example 14, 3-Phenyl-4-(3-methoxy-4-methylsulfanylphenyl)-2,5-dihydro-2-furanone]	142 to 144 °C
COc1ccc(C2=C(c3ccc(SC)c(C)c3)COC2=O)cc1 [Example 12, 4-(3-Methyl-4-methylsulfanylphenyl)-3-(4-methoxyphenyl)-2,5-dihydro-2-furanone]	147 to 150 °C
CSc1ccc(C2=C(c3ccc(SC)c(Cl)c3)COC2=O)cc1 [Example 21, 3-(4-Methylsulfanylphenyl)-4-(3-chloro-4-methylsulfanylphenyl)-2,5-dihydro-2-furanone]	157 to 158 °C
CSc1ccc(C2=C(c3ccc(CC(C)C)cc3)C(=O)OC2)cc1C [Example 11, 4-(3-Methyl-4-methylsulfanylphenyl)-3-(4-isobutylphenyl)-2,5-dihydro-2-furanone]	146 to 149 °C
CSc1ccc(C2=C(c3ccc(F)cc3)C(=O)OC2)cc1C [Example 7, 4-(3-Methyl-4-methylsulfanylphenyl)-3-(4-fluorophenyl)-2,5-dihydro-2-furanone]	126 to 130 °C
CSc1ccc(C2=C(c3ccccc3)C(=O)OC2)cc1Cl [Example 20, 4-(4-Methylsulfanyl-3-chlorophenyl)-3-phenyl-2,5-dihydro-2-furanone]	151 to 152 °C
CSc1ccc(C2=C(c3ccc(C(F)(F)F)cc3)C(=O)OC2)cc1C [Example 16, 4-(3-Methyl-4-methylsulfanylphenyl)-3-(4-trifluoromethylphenyl)-2,5-dihydro-2-furanone]	140 to 143 °C
CSc1ccc(C2=C(c3ccccc3)C(=O)OC2)c(F)c1 [Example 18, 4-(2-Fluoro-4-methylsulfanylphenyl)-3-phenyl-2,5-dihydro-2-furanone]	145 to 147 °C
CSc1ccc(C2=C(c3ccccc3)C(=O)OC2)cc1C [Example 5, 4-(3-Methyl-4-methylsulfanylphenyl)-3-phenyl-2,5-dihydro-2-furanone]	150 to 153 °C
CSc1ccc(C2=C(c3ccc(F)c(F)c3)C(=O)OC2)cc1C [Example 3, 4-(3-Methyl-4-methylsulfanylphenyl)-3-(3,4-difluorophenyl)-2,5-dihydro-2-furanone]	150 to 153 °C
CSc1ccc(C2=C(c3ccc(C)cc3)C(=O)OC2)cc1C [Example 8, 4-(3-Methyl-4-methylsulfanylphenyl)-3-(4-methylphenyl)-2,5-dihydro-2-furanone]	144 to 147 °C

Second part, the molecule after the results:

melting point	SMILES
159 to 160 °C	CSc1ccc(C2=C(c3ccc(C)cc3)C(=O)OC2)cc1F [Example 27, 4-(4-Methylsulfanyl-3-fluorophenyl)-3-(4-methylphenyl)-2,5-dihydro-2-furanone]
127 to 130 °C	CC1(C)OC(=O)C(c2ccc(F)cc2)=C1c1ccc(S(C)(=O)=O)c(CN2CCOCC2)c1 [Example 67, 3-(4-Fluorophenyl)-5,5-dimethyl-4-(4-methylsulfonyl-3-morpholinomethylphenyl)-2,5-dihydro-2-furanone]
118 °C	CSc1ccc(C2=C(c3ccc(F)cc3)C(=O)OC2)c(F)c1 [Example 42, 4-(2-Fluoro-4-methylsulfanylphenyl)-3-(4-fluorophenyl)-2,5-dihydro-2-furanone]
161 to 162 °C	CSc1ccc(C2=C(c3ccc(SC)c(F)c3)COC2=O)cc1 [Example 24, 4-(4-Methylsulfanyl-3-fluorophenyl)-3-(4-methylsulfanylphenyl)-2,5-dihydro-2-furanone]
92 to 94 °C	CSc1ccc(C2=C(c3ccc(CC(C)C)cc3)C(=O)OC2)c(F)c1 [Example 35, 4-(2-Fluoro-4-methylsulfanylphenyl)-3-(4-isobutylphenyl)-2,5-dihydro-2-furanone]
147 to 149 °C	CSc1ccc(C2=C(c3ccc(C)cc3)C(=O)OC2)cc1Cl [Example 26, 4-(4-Methylsulfanyl-3-chlorophenyl)-3-(4-methylphenyl)-2,5-dihydro-2-furanone]
164 to 166 °C	COOSc1ccc(C2=C(c3ccc(C)cc3)C(=O)OC2)cc1Cl [Example 29]
145 to 148 °C	CS(=O)(=O)c1ccc(C2=C(c3cccc4ccccc34)C(=O)OC2)c(F)c1 [Example 54, 4-(2-Fluoro-4-methylsulfonylphenyl)-3-(1-naphthyl)-2,5-dihydro-2-furanone]
198 to 200 °C	CS(=O)(=O)c1ccc(C2=C(c3ccccc3)C(=O)N(c3ccc(F)cc3)C2=O)c(F)c1 [Example 98, 3-(2-Fluoro-4-methylsulfonylphenyl)-1-(4-fluorophenyl)-4-phenyl-2,5-dihydro-1H-2,5-azoledione]
122 to 124 °C	COc1ccc(C2=C(c3ccc(SC)c(F)c3)COC2=O)cc1 [Example 38, 4-(4-Methylsulfanyl-3-fluorophenyl)-3-(4-methoxyphenyl)-2,5-dihydro-2-furanone]
151 to 152 °C	CSc1ccc(C2=C(c3ccc(F)c(F)c3)C(=O)OC2)cc1Cl [Example 22, 4-(4-Methylsulfanyl-3-chlorophenyl)-3-(3,4-difluorophenyl)-2,5-dihydro-2-furanone]
145 to 146 °C	CSc1ccc(C2=C(c3ccccc3)C(=O)OC2)cc1F [Example 23, 4-(4-Methylsulfanyl-3-fluorophenyl)-3-phenyl-2,5-dihydro-2-furanone]
